Reference: paper PMC8624133, “10th Trends in Medical Mycology Held on 8 to 11 October 2021, Aberdeen, Scotland, Organized by the European Confederation of Medical Mycology (ECMM)” (Journal of Fungi, 2021)
In brackets after ≈: the same amount, converted by molar mass. Where two headings read alike, the source gives them in different places.

Key:
[1] = system: Candida sp. and other yeast isolates, planktonic; experiment: MIC of catheter yeast isolates, planktonic form; type: cell-based; conditions: read-out: Minimum Inhibitory Concentrations (MIC)
[2] = system: C. albicans; experiment: Candidemia Netherlands, MIC distributions against EUCAST ECOFF; type: cell-based, Candida albicans
[3] = system: Phaeoacremonium parasiticum; experiment: Antifungal susceptibility testing; type: cell-based
Description: Results: Cultures for bacteria were sterile. Culture on Sabouraud was positive after 5 days of incubation, showing slow growing and initially white colonies. […] Its identification was performed by sequencing the internal transcribed spacer (ITS) region of ribosomal DNA, being the isolate identified as Phaeoacremonium parasiticum (100% homology).

[4] = system: C. glabrata; experiment: Antifungal susceptibility testing of blood culture isolate; type: cell-based, Candida glabrata; conditions: Nakaseomyces glabratus
Text: Case presentation: A patient with a surgically corrected Tetralogy of Fallot and pulmonary valve replacement (BioPulmonic Conduit) was admitted to the cardiology ward for treatment of their progessively worsening symptomatic heart failure. Their medical history reports multiple other co-morbidities including supravalvular (prothetic pulmonary valve) stenosis, supraventricular tachycardia, atrial fibrillation, diabetes mellitus type I, and intellectual disability. No history of IV drug use or recent immunosuppressive therapy was reported. On admission they received diuretic treatment and a percutaneous intervention was planned to treat the supravalvular pulmonary stenosis. However, ten days after admission they developed fever (40.5 °C) with elevated C-reactive protein (237.9 mg/L) and leukocytosis (14.0 × 10^9/L). […] Anidulafungine IV was started and follow-up bloodcultures were taken routinely. The patient improved clinically and their inflammation markers normalized. However, the bloodcultures were persistently positive, albeit with periods of negative cultures, despite adequate treatment with high-dose anidulafungin 200 mg IV daily. International guidelines recommend surgery to treat Candida prostethic valve infective endocarditis and/or long-term suppressive therapy with antifungal drugs. […]

[5] = system: C. krusei; type: cell-based, Candida krusei
[6] = system: C. fermentati; experiment: EUCAST E. Def 7.3.2 microdilution; type: cell-based, Candida fermentati; conditions: n = 2
[7] = system: Candida isolates; type: cell-based, Candida spp.; conditions: E-Test strips
[8] = system: C. auris III.8 and TAC1/MRR1 deletion strains; type: cell-based, Candida auris
[9] = Triazole drug levels in ABPA patients with asthma; type: in vivo, human; conditions: 452 patients, Oct 2009 to March 2021
Text: Materials & Methods: This was a retrospective single-centre cohort study evaluating longitudinal outcomes in non-cystic fibrosis (CF) ABPA patients with underlying chronic lung disease (asthma), and description of treatment approaches. Statistical Analysis System (SAS) programming was used for data integration from multiple hospital electronic systems, for patient identification and data analysis. Criteria for inclusion were patients with a background of asthma, serum Total IgE >1000 IU/mL and a positive Aspergillus IgE, with or without a positive culture for A. fumigatus from a respiratory sample. Data collected included demographics, lung function severity, disease activity serological markers (Aspergillus IgE, Aspergillus IgG, Total IgE) and triazole levels. In this study the impact of fungal therapy on disease outcomes was assessed.

[10] = system: azole-resistant A. fumigatus SS clinical strains; experiment: EUCAST E.DEF 9.3.2; type: cell-based; conditions: Aspergillus fumigatus
[11] = system: A. fumigatus veterinary isolates; experiment: EUCAST microdilution of veterinary isolates; type: cell-based, Aspergillus fumigatus
Description: All have been confirmed as A. fumigatus by MALDI-TOF MS using the BCCM/IHEM database. The antifungal susceptibility was evaluated using the microdilution EUCAST method. Cyp51A gene sequencing has been performed on all resistant isolates.

[12] = system: A. fumigatus complex; conditions: share of isolates, n = 59, EUCAST clinical breakpoints
[13] = system: A. fumigatus isolates; experiment: AFST by EUCAST method and direct inoculation of spore suspensions
Description: Material/methods: We used two methods for AFST: In the standard “EUCAST method”, AFST was performed using spores from a maturated colony. In the “direct inoculation method”, AFST was performed using the spore suspensions that were either stored or sent from other laboratories directly without a subculturing phase. Three groups of isolates were analyzed. […] Spore suspensions were prepared and AFST was performed daily after storing the isolates for 4 days at room temperature, and after 4 days for spore suspensions stored at 2–4 °C and at 28 °C. All measurements were performed in triplicate. Group II, retrospective analysis: 50 isolates that were sent to our laboratory as spore suspensions were tested using the direct inoculation method and stored at −70 °C in glycerol broth. The stored isolates were revived and AFST was repeated using the EUCAST method. Group III: prospective analysis: 30 isolates that were sent to our laboratory as spore suspensions were tested using the direct inoculation method and simultaneously using the EUCAST methods without storage at −70 °C. MICs based on the EUCAST and direct inoculation methods were compared.

[14] = Therapeutic drug monitoring of VRC plasma levels; type: in vivo, human
Description: Materials & Methods: Patients are aged over 18 years and given antifungal therapy between January 2019–November 2020 in the Hacettepe University Hospitals were included. The study was approved by the University Clinical Research Ethics Committee. Demographics and antifungal treatment periods of the patients were analyzed retrospectively. As of January 2020, VRC plasma levels had started to be analyzed on a weekly basis in the study setting. Plasma VRC levels (target range: 1–5.5 mg/L) were measured by using liquid chromatography—triple quadrupole mass spectrometer (Shimadzu LCMS-8040). The impact of TDM on appropriateness of VRC treatment were evaluated by the numbers of treatment switch and the use of oral route.

[15] = system: F. solani (FS) biofilms; experiment: Mature biofilm damage, XTT metabolic reduction assay; conditions: Fusarium solani, 24 h, read-out: BF MIC50
[16] = system: Asp. flavus; experiment: Triazole resistance agar screening, four-well plate; conditions: RPMI agar, 1 µg/mL, 29 isolates
Description: All the isolates were identified phenotypically. […] Fungal spores were suspended in normal saline (0.85%) and adjusted to 0.5 McFarland and 50 μL was plated in each well. […] Plates were incubated at 35–37 °C for 72 h in ambient air. The presence or absence of growth was observed visually at 24 h, 48 h, and 72 h.

[17] = III.8 tac1a/tac1b strain vs parental
[18] = III.8 tac1a/tac1b/mrr1 strain vs parental
[19] = strain from pleural fluid of an ICU patient, no mutations in cyp51A
[20] = two strains from a cystic fibrosis patient, TR34/L98H

SMILES | isolates within the wildtype distribution range [2] [%] | minimal inhibitory concentrations (MIC), in words [3] | S (sensitive) isolates, n (%) [5] | GM [6] [µg/mL] | MIC Range [6] [µg/mL] | MIC decrease ([8]; III.8 mrr1 strain vs parental) [fold] | MIC decrease [8, 17] [fold] | MIC ([8]; III.8 tac1a/tac1b/mrr1 strain) [µg/mL] | MIC decrease [8, 18] [fold] | MIC ([8]; parental III.8 isolate) [µg/mL] | median trough drug level [9] [mg/L] | MIC [10, 19] [µg/mL] | MIC [10, 20] [µg/mL] | Resistance [12] [%] | other results
C[C@@H]1[C@H](O)[C@@H](C)/C=C/C=C/C=C/C=C/C=C/C=C/C=C/[C@H](O[C@@H]2O[C@H](C)[C@@H](O)[C@H](N)[C@@H]2O)C[C@@H]2O[C@](O)(C[C@@H](O)C[C@@H](O)[C@H](O)CC[C@@H](O)C[C@@H](O)CC(=O)O[C@H]1C)C[C@H](O)[C@H]2C(=O)O [amphotericin B] | 100 | higher | 7 (100%) | 0.125 | 0.125 to 0.25 |  |  |  |  |  |  |  |  |  | MIC [1]: 30 to 1000 µg/mL; MIC [4]: 0.38 µg/mL (≈ 0.411 µM)
OC(Cn1cncn1)(Cn1cncn1)c1ccc(F)cc1F [fluconazole] | 96.8 |  |  | 2 | 2 (≈ 6.53 µM) | 2 | 2 | 128 (≈ 418 µM) | 4 | 512 (≈ 1670 µM) |  |  |  |  | comparative effectiveness among antifungals [7]: most effective antifungal
CCC(C)n1ncn(-c2ccc(N3CCN(c4ccc(OCC5COC(Cn6cncn6)(c6ccc(Cl)cc6Cl)O5)cc4)CC3)cc2)c1=O (stereo not drawn) [itraconazole] |  |  |  |  |  |  |  |  |  |  | 0.76 | > 8 | > 8 | 5 | isolates with values equal to the clinical breakpoint [11]: 33%; resistance of isolates [11]: No resistance; MIC ([13]; Aspergillus fumigatus, Group II, 5 strains, direct inoculation method): 2 to 4 µg/mL (≈ 2.83 to 5.67 µM); MIC ([13]; Aspergillus fumigatus, Group II, the same 5 strains, EUCAST method): 0.5 to 1 µg/mL (≈ 0.709 to 1.42 µM)
C[C@@H](c1ncncc1F)[C@](O)(Cn1cncn1)c1ccc(F)cc1F [voriconazole] |  | low | 7 (100%) |  |  | 2 | 2 | 0.5 (≈ 1.43 µM) | 4 | 2 (≈ 5.73 µM) | 0.82 | 1 (≈ 2.86 µM) | 4 (≈ 11.5 µM) | 9 | MIC ([8]; III.8 tac1a/tac1b strain): 1 µg/mL (≈ 2.86 µM); isolates in the area of technical uncertainty (ATU) [11]: 47%; median plasma level (range) ([14]; 88 levels in 34 patients, LC-MS): 4.2 (0.2–18.1) mg/L; Adverse effects, n (%) ([14]; Subtherapeutic (<1 mg/L)): 0 (0.0); Adverse effects, n (%) ([14]; Supratherapeutic (>5.5 mg/L)): 4 (13.8); Adverse effects, n (%) ([14]; Therapeutic (1–5.5 mg/L)): 0 (0.0); VRC-related adverse effects ([14]; all at supratherapeutic levels): Four; plasma levels at subtherapeutic range (<1 mg/L), n (%) ([14]; n = 88): 14 (15.9%); plasma levels at supratherapeutic range (>5.5 mg/L), n (%) ([14]; n = 88): 29 (33.0%); plasma levels at therapeutic range (1–5.5 mg/L), n (%) ([14]; n = 88): 45 (51.1%); MIC50 [15]: > 256 µg/mL; isolates with growth only in voriconazole well, n (%) ([16]; 48 h): 1 (3.44%); isolates with growth only in voriconazole well, n (%) ([16]; 72 h): 11 (37.93%); MIC ([13]; Aspergillus fumigatus, Group I, one resistant isolate): 2 to 4 µg/mL (≈ 5.73 to 11.5 µM); MIC ([13]; Group III, one isolate, EUCAST methods): 2 µg/mL (≈ 5.73 µM); MIC ([13]; Group III, the same isolate, direct inoculation): 1 µg/mL (≈ 2.86 µM)
